Data published in patent publication US8546375B2, “(3-(4-(aminomethyl)phenoxy or phenylthio)azetidin-1-yl)(5-phenyl-1,3,4-oxadiazol-2-yl)methanone compounds” (AstraZeneca AB, priority 2010, dated 2013).
Structures can show the parent of a compound that is named as a salt.

These molecules were tested against T1, Melanin Concentrating Hormone Receptor 1 (MCHR1) (Homo sapiens, UniProt Q99705) (assay: MCHR1 Receptor Activation Assay (GTPγ^35S)). Details: read-out: GTPγ^35S IC50.
T1 construct: expressed in transfected cells
Assay type: biochemical

T1 sequence (Q99705 whole entry): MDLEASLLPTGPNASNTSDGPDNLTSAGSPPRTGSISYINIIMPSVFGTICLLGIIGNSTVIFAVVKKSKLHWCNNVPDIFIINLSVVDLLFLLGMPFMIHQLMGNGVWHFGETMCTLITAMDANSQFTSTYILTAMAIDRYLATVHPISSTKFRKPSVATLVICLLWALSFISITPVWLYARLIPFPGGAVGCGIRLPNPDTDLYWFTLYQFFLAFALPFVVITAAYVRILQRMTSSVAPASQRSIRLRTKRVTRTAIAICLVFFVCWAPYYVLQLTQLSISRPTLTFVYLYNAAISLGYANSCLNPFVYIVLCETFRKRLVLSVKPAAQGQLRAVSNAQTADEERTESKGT

| SMILES | IC50 |
| --- | --- |
| Cc1ccc(-c2nnc(C(=O)N3CC(Oc4ccc(CN5CCOCC5)cc4C)C3)o2)cc1 [Example 13, (3-(2-Methyl-4-(morpholinomethyl)phenoxy)azetidin-1-yl)(5-p-tolyl-1,3,4-oxadiazol-2-yl)methanone] | 29 nM |
| O=C(c1nnc(-c2ccccc2)o1)N1CC(Oc2ccc(CN3CCC3)cc2)C1 [Example 42, (3-(4-(azetidin-1-ylmethyl)phenoxy)azetidin-1-yl)(5-phenyl-1,3,4-oxadiazol-2-yl)methanone] | 26 nM |
| COc1ccc(-c2nnc(C(=O)N3CC(Oc4ccc(CN5CC(C)(O)C5)cc4Cl)C3)o2)cc1 [Example 79, (3-(2-Chloro-4-((3-hydroxy-3-methylazetidin-1-yl)methyl)phenoxy)azetidin-1-yl)(5-(4-methoxyphenyl)-1,3,4-oxadiazol-2-yl)methanone] | 34 nM |
| CC1(O)CN(Cc2ccc(OC3CN(C(=O)c4nnc(-c5ccccc5)o4)C3)cc2)C1 [Example 77, (3-(4-((3-Hydroxy-3-methylazetidin-1-yl)methyl)phenoxy)azetidin-1-yl)(5-phenyl-1,3,4-oxadiazol-2-yl)methanone] | 40 nM |
| COc1ccc(-c2nnc(C(=O)N3CC(Oc4ccc(CN5CCCC5)c(OC)c4C)C3)o2)cc1 [Example 52, (3-(3-Methoxy-2-methyl-4-(pyrrolidin-1-ylmethyl)phenoxy)azetidin-1-yl)(5-(4-methoxyphenyl)-1,3,4-oxadiazol-2-yl)methanone] | 24 nM |
| COc1ccc(-c2nnc(C(=O)N3CC(Oc4ccc(CN5CCC(F)(CO)CC5)cc4)C3)o2)cc1 [Example 81, (3-(4-((4-Fluoro-4-(hydroxymethyl)piperidin-1-yl)methyl)phenoxy)azetidin-1-yl)(5-(4-methoxyphenyl)-1,3,4-oxadiazol-2-yl)methanone] | 25 nM |
| O=C(c1nnc(-c2ccccc2)o1)N1CC(Oc2ccc(CN3CC(O)C3)cc2Cl)C1 [Example 58, (3-(2-Chloro-4-((3-hydroxyazetidin-1-yl)methyl)phenoxy)azetidin-1-yl)(5-phenyl-1,3,4-oxadiazol-2-yl)methanone] | 29 nM |
| O=C(c1nnc(-c2ccccc2)o1)N1CC(Oc2ccc(CN3CCCC3)cc2)C1 [Example 3, (5-Phenyl-1,3,4-oxadiazol-2-yl)(3-(4-(pyrrolidin-1-ylmethyl)phenoxy)azetidin-1-yl)methanone] | 27 nM |
| Cc1ccc(-c2nnc(C(=O)N3CC(Oc4ccc(CN(C)C)c(F)c4)C3)o2)cc1 [Example 28, (3-(4-((Dimethylamino)methyl)-3-fluorophenoxy)azetidin-1-yl)(5-p-tolyl-1,3,4-oxadiazol-2-yl)methanone] | 27 nM |
| COc1ccc(-c2nnc(C(=O)N3CC(Oc4ccc(CN5CC(C)(O)C5)cc4)C3)o2)cc1 [Example 76, (3-(4-((3-Hydroxy-3-methylazetidin-1-yl)methyl)phenoxy)azetidin-1-yl)(5-(4-methoxyphenyl)-1,3,4-oxadiazol-2-yl)methanone] | 23 nM |
| CNCc1ccc(OC2CN(C(=O)c3nnc(-c4ccccc4)o3)C2)cc1C [Example 53, (3-(3-Methyl-4-((methylamino)methyl)phenoxy)azetidin-1-yl)(5-phenyl-1,3,4-oxadiazol-2-yl)methanone] | 28 nM |
| COCCN(C)Cc1ccc(SC2CN(C(=O)c3nnc(-c4ccccc4)o3)C2)cc1 [Example 61, (3-(4-(((2-Methoxyethyl)(methyl)amino)methyl)phenylthio)azetidin-1-yl)(5-phenyl-1,3,4-oxadiazol-2-yl)methanone hydrochloride] | 22 nM |
| COc1ccc(-c2nnc(C(=O)N3CC(Oc4ccc(CN5CCC5)cc4)C3)o2)cc1 [Example 41, (3-(4-(Azetidin-1-ylmethyl)phenoxy)azetidin-1-yl)(5-(4-methoxyphenyl)-1,3,4-oxadiazol-2-yl)methanone] | 25 nM |
| COc1ccc(-c2nnc(C(=O)N3CC(Oc4ccc(CN(C)C)cc4)C3)o2)cc1 [Example 38, (3-(4-((Dimethylamino)methyl)phenoxy)azetidin-1-yl)(5-(4-methoxyphenyl)-1,3,4-oxadiazol-2-yl)methanone] | 27 nM |
| CNCc1ccc(SC2CN(C(=O)c3nnc(-c4ccccc4)o3)C2)cc1 [Example 63, (3-(4-((Methylamino)methyl)phenylthio)azetidin-1-yl)(5-phenyl-1,3,4-oxadiazol-2-yl)methanone hydrochloride] | 23 nM |
| CNCc1ccc(OC2CN(C(=O)c3nnc(-c4ccc(OC)cc4)o3)C2)c(C)c1 [Example 54, (5-(4-Methoxyphenyl)-1,3,4-oxadiazol-2-yl)(3-(2-methyl-4-((methylamino)methyl)phenoxy)azetidin-1-yl)methanone] | 31 nM |
| Cc1ccc(-c2nnc(C(=O)N3CC(Oc4ccc(CN(C)C)c(C)c4)C3)o2)cc1 [Example 22, (3-(4-((Dimethylamino)methyl)-3-methylphenoxy)azetidin-1-yl)(5-p-tolyl-1,3,4-oxadiazol-2-yl)methanone] | 25 nM |

Further lines, results first:

| IC50 | SMILES |
| --- | --- |
| 22 nM | COc1ccc(-c2nnc(C(=O)N3CC(Oc4ccc(CN5CCC(CO)CC5)cc4)C3)o2)cc1 [Example 89, (3-(4-((4-(hydroxymethyl)piperidin-1-yl)methyl)phenoxy)azetidin-1-yl)(5-(4-methoxyphenyl)-1,3,4-oxadiazol-2-yl)methanone] |
| 22 nM | COc1ccc(-c2nnc(C(=O)N3CC(Oc4ccc(CN5CCC(C)(CO)CC5)c(C)c4)C3)o2)cc1 [Example 82, (3-(4-((4-(Hydroxymethyl)-4-methylpiperidin-1-yl)methyl)-3-methylphenoxy)azetidin-1-yl)(5-(4-methoxyphenyl)-1,3,4-oxadiazol-2-yl)methanone] |
| 20 nM | CCC1(O)CN(Cc2ccc(OC3CN(C(=O)c4nnc(-c5ccc(OC)cc5)o4)C3)cc2)C1 [Example 70, (3-(4-((3-Ethyl-3-hydroxyazetidin-1-yl)methyl)phenoxy)azetidin-1-yl)(5-(4-methoxyphenyl)-1,3,4-oxadiazol-2-yl)methanone] |
| 19 nM | CN(C)Cc1ccc(OC2CN(C(=O)c3nnc(-c4ccc(C(F)(F)F)cc4)o3)C2)cc1 [Example 35, (3-(4-((dimethylamino)methyl)phenoxy)azetidin-1-yl)(5-(4-(trifluoromethyl)phenyl)-1,3,4-oxadiazol-2-yl)methanone] |
| 19 nM | CN(C)Cc1ccc(SC2CN(C(=O)c3nnc(-c4ccccc4)o3)C2)cc1 [Example 60, (3-(4-((Dimethylamino)methyl)phenylthio)azetidin-1-yl)(5-phenyl-1,3,4-oxadiazol-2-yl)methanone] |
| 19 nM | COc1ccc(-c2nnc(C(=O)N3CC(Oc4ccc(CN(C)C)c(Cl)c4)C3)o2)cc1 [Example 47, (3-(3-Chloro-4-((dimethylamino)methyl)phenoxy)azetidin-1-yl)(5-(4-methoxyphenyl)-1,3,4-oxadiazol-2-yl)methanone] |
| 19 nM | CN(C)Cc1ccc(OC2CN(C(=O)c3nnc(-c4ccc(OC(F)F)cc4)o3)C2)cc1F [Example 51, (5-(4-(Difluoromethoxy)phenyl)-1,3,4-oxadiazol-2-yl)(3-(4-((dimethylamino)methyl)-3-fluorophenoxy)azetidin-1-yl)methanone] |
| 17 nM | CCC1(O)CN(Cc2ccc(OC3CN(C(=O)c4nnc(-c5ccccc5)o4)C3)cc2C)C1 [Example 75, (3-(4-((3-Ethyl-3-hydroxyazetidin-1-yl)methyl)-3-methylphenoxy)azetidin-1-yl)(5-phenyl-1,3,4-oxadiazol-2-yl)methanone] |
| 17 nM | CN(C)Cc1ccc(OC2CN(C(=O)c3nnc(-c4ccc(OC(F)F)cc4)o3)C2)cc1 [Example 37, (5-(4-(Difluoromethoxy)phenyl)-1,3,4-oxadiazol-2-yl)(3-(4-((dimethylamino)methyl)phenoxy)azetidin-1-yl)methanone] |
| 15 nM | O=C(c1nnc(-c2ccc(C(F)(F)F)cc2)o1)N1CC(Oc2ccc(CN3CCCC3)cc2)C1 [Example 5, (3-(4-(Pyrrolidin-1-ylmethyl)phenoxy)azetidin-1-yl)(5-(4-(trifluoromethyl)phenyl)-1,3,4-oxadiazol-2-yl)methanone formate] |
| 15 nM | COc1ccc(-c2nnc(C(=O)N3CC(Oc4ccc(CN5CCCC5)c(F)c4)C3)o2)cc1 [Example 32, (3-(3-Fluoro-4-(pyrrolidin-1-ylmethyl)phenoxy)azetidin-1-yl)(5-(4-methoxyphenyl)-1,3,4-oxadiazol-2-yl)methanone] |
| 11 nM | Cc1cc(OC2CN(C(=O)c3nnc(-c4ccc(OC(F)F)cc4)o3)C2)ccc1CN(C)C [Example 43, (5-(4-(Difluoromethoxy)phenyl)-1,3,4-oxadiazol-2-yl)(3-(4-((dimethylamino)methyl)-3-methylphenoxy)azetidin-1-yl)methanone] |
| 10 nM | Cc1cc(CN2CCOCC2)ccc1OC1CN(C(=O)c2nnc(-c3ccc(Cl)cc3)o2)C1 [Example 15, (5-(4-Chlorophenyl)-1,3,4-oxadiazol-2-yl)(3-(2-methyl-4-(morpholinomethyl)phenoxy)azetidin-1-yl)methanone] |
| 7 nM | O=C(c1nnc(-c2ccc(Cl)cc2)o1)N1CC(Oc2ccc(CN3CCCC3)cc2)C1 [Example 1, (5-(4-Chlorophenyl)-1,3,4-oxadiazol-2-yl)(3-(4-(pyrrolidin-1-ylmethyl)phenoxy)azetidin-1-yl)methanone] |

Same assay, conditions: separated enantiomers of Example 84 (chiral chromatography fractions); assay not given; read-out: IC50

| SMILES | IC50 |
| --- | --- |
| COc1ccc(-c2nnc(C(=O)N3CC(Oc4ccc(CN5CCC(C)(CO)C5)cc4)C3)o2)cc1 (single isomer, unassigned; (-)) [Example E1, (−)(3-(4-((3-(hydroxymethyl)-3-methylpyrrolidin-1-yl)methyl)phenoxy)azetidin-1-yl)(5-(4-methoxyphenyl)-1,3,4-oxadiazol-2-yl)methanone] | 28 nM |

Same assay, conditions: when tested in the above referenced assays (MCH binding assay; MCHR1 receptor activation assay); read-out: IC50 value

| SMILES | IC50 |
| --- | --- |
| O=C(c1nnc(-c2ccccc2)o1)N1CC(Oc2ccc(CNC3COC3)cc2)C1 [(3-(4-((oxetan-3-ylamino)methyl)phenoxy)azetidin-1-yl)(5-sphenyl-1,3,4-oxadiazol-2-yl)methanone] | ≥ 100 nM |
